These results are taken from patent US6835735B2, “4-(phenylamino)-[1,4]dioxano[2,3-g]quinazoline derivatives and process for preparing the same” (Korea Institute of Science and Technology, priority 2001, dated 2004).

pIC50: −log10 of the molar value. Converted amounts (≈) assume the structure as drawn. Counter-ions that a name gives are not always drawn.

The target in data set [1] is T1, purified human EGFR kinase (Homo sapiens, UniProt P00533).
T1 construct: purchased Promega
Nature of the data set: Inhibition of EGFR tyrosine kinase (P32-ATP, biotin-conjugated substrate). In kind it is biochemical. The following applies: for pIC50: purified human EGFR kinase, 50 μM ATP, 30° C., 10 min. As for the experimental part: The test was accomplished in a 20 μl reaction volume using 0.1 unit per reaction of purified human EGFR kinase (Promega, U.S.A.) and 50 μM biotin-conjugated substrate for tyrosine kinase (Promega, U.S.A.) and, 50 μM P^32-γ-ATP (0.2 μCi) and 20 mM Tris-HCl (pH 7.5) were employed as an ATP and a reaction solution, respectively. The test was carried out at 30° C. for 10 min, and terminated by the addition of 10 μl of 30% phosphate solution. The half of the reaction product was spotted onto avidin-layered PVDF membrane, which was then washed with 20 mM Tris-HCl (pH 8.0) and 0.2N NaCl aqueous solution for more than 2 hours.

The next data set deals with A431 cancer cell. Kind of data set: Inhibition of cancer cell growth (sulforhodamine B). In kind it is cell-based. The following applies: for GI50: Homo sapiens, A-431, 48 h; for GI50 / A431 GI50: A431 cells, grown 2 days with compound, SRB staining; for inhibitory effect of cancer cell growth compared with standard material DP153035: A431, comparison drawn from Table 3; for A431 GI50: hydrochloride. How it is done: A431 cancer cell was cultivated at 37° C. under an environment of 5% (v/v) CO2 employing RPMI 1640 medium containing 10% (v/v) fetal calf serum. […] The above cells was grown again for 2 days, and then, fixed with formalin solution (Sigma Chem. Co., U.S.A.) and washed with water. After that, the cells was dried in the atmosphere, stained with 0.1% (v/v) sulforhodamine B solution (Sigma Chem. Co., U.S.A.) for 30 min and wash with 1% (v/v) acetic acid aqueous solution. Then, dye attached to cells was extracted with 0.1M Tris-HCl (pH 8.0) and the absorbances of the remaining culture were measured at 520 nm by the aid of microplate reader. And then, the concentration of the compound by which cell growth is 50% inhibited was represented as GI50(s: Table 3).
On the technique in general: In SRB staining, fixed cells bind dye roughly in proportion to their protein.

Data set [2] in a line: Measurement of the solubility of compounds in water (HPLC calibration curve). In kind it is physicochemical. The following applies: supersaturated in 1 ml of water, centrifuged, supernatant by HPLC; for solubility thermodynamic: read-out: Solubility (mg/10 ml of water). How it is done: That is, 1 mg of each of the above compounds was completely dissolved in 1 ml of DMSO, which was then subjected to HPLC employing C18 resin, and the peak area of chromatogram was calculated. And then, 1 mg of each of the same compound was dissolved in 10 ml of DMSO, which was then subjected to the same HPLC as the above to obtain a chromatogram, and the peak area was calculated therefrom. A solubility calibration curve was prepared by employing the above two data, and a linear function was deduced from that to complete a calibration curve (X axis: area, Y axis: logarithm value of concentration).
Each of the same compounds was supersaturated in 1 ml of water, which was then centrifuged at 14,000 rpm for 1 min. The precipitate was separated from the supernatant which was then subjected to the same HPLC as the above to obtain a chromatogram, and the peak area was calculated therefrom. The obtained value was substituted to the above calibration curve to measure the solubility by mg/10 ml of water (see: Table 1).

For data set [3] the following is noted: background statement; cited from earlier work.

T1 sequence (P00533 25-1210): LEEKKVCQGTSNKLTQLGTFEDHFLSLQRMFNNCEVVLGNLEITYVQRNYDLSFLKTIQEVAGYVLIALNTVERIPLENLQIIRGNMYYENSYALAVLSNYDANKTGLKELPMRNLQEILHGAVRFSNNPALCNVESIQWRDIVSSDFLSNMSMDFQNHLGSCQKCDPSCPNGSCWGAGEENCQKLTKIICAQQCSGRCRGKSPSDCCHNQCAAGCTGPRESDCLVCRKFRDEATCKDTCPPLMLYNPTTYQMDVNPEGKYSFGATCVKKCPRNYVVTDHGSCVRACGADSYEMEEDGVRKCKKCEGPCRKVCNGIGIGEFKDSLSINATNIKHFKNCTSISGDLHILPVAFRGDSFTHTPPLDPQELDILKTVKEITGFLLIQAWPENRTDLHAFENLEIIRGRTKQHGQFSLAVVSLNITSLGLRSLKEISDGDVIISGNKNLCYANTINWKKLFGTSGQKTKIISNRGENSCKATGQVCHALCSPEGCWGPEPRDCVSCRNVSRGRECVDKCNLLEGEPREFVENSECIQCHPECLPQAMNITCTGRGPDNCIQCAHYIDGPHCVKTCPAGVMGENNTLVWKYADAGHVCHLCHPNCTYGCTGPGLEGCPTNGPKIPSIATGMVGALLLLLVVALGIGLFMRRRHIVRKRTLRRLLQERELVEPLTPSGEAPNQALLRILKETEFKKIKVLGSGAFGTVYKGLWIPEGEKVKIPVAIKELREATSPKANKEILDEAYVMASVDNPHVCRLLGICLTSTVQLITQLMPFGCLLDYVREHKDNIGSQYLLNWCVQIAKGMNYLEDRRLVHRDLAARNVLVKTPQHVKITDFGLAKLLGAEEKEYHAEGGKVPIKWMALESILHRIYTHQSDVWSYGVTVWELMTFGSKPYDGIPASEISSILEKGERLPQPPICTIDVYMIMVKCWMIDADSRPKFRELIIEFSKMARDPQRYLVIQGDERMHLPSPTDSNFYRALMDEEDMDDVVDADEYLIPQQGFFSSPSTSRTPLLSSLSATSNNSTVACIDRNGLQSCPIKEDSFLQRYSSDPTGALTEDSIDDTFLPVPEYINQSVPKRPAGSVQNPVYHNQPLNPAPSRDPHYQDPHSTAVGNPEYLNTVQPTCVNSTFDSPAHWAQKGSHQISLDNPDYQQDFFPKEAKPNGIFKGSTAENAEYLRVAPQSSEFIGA

On to `COCC1COc2cc3ncnc(Nc4cccc(F)c4)c3cc2O1` (stereo not shown) [Example 8, (3-fluorophenyl)-(7-methoxymethyl-[1,4]-dioxano[2,3-g]quinazolin-4-yl)-amine], for which the melting point (usually the temperature, or range, at which the solid turns liquid) was 257 to 260 °C. Besides, the negative-log IC50 (pIC50) – broadly, −log10 of the IC50, conventionally taken in molar units – in data set [1] was less than 6.53. The GI50 (usually the concentration that inhibits growth by half) in the data set on A431 cancer cell is 1.16 µg/mL (≈ 3.4 µM). In addition, the solubility thermodynamic in data set [2] is 1040 µg/mL (≈ 3050 µM).
In data set [1], `COCC1COc2cc3ncnc(Nc4cc(Cl)cc(Cl)c4)c3cc2O1` (stereo not shown) [Example 13, (3,5-dichlorophenyl)-(7-methoxymethyl-[1,4]-dioxano[2,3-g]quinazolin-4-yl)-amine] had a negative logarithm of the IC50 (pIC50) of 7.46. Besides, in the data set on A431 cancer cell, the “inhibitory effect of cancer cell growth compared with standard material DP153035” value is given as “better inhibitory effect of cancer cell growth than the standard material” and the GI50 turned out to be 0.21 µg/mL (≈ 0.535 µM). Moreover, the solubility thermodynamic in data set [2] worked out at 8 µg/mL (≈ 20.4 µM).
Take `CN1CCN(CC2COc3cc4ncnc(Nc5cccc(I)c5)c4cc3O2)CC1.Cl` (stereo not shown) [Example 36, (3-iodophenyl)-[7-(4-methylpiperazin-1-yl)methyl-[1,4]dioxano[2,3-g]quinazolin-4-yl]amine hydrochloride]: in data set [2], the “Solubility (mg/10 ml of water)” value is >>1,000 mg/10 ml of water.
In the case of `COCC1COc2cc3ncnc(Nc4cc(F)c(F)c(F)c4)c3cc2O1` (stereo not shown) [Example 18, (3,4,5-trifluorophenyl)-(7-methoxymethyl-[1,4]-ioxano[2,3-g]quinazolin-4-yl)-amine], in data set [1] (comparison drawn from Table 2), the “inhibitory effect on EGFR tyrosine kinase compared with standard material DP153035” value is “higher inhibitory effect than the standard material”. The same molecule showed a negative logarithm of the IC50 (pIC50) in data set [1] of 8.38. Moreover, in the data set with A431 cancer cell, the GI50 is 1.98 µg/mL (≈ 5.25 µM). Further, the solubility thermodynamic in data set [2] was 45 µg/mL (≈ 119 µM).
As for `COCC1COc2cc3ncnc(Nc4ccc(C)c(Cl)c4)c3cc2O1` (stereo not shown) [Example 16, (3-chloro-4-methylphenyl)-(7-methoxymethyl-[1,4]-dioxano[2,3-g]quinazolin-4-yl)-amine], the solubility thermodynamic in data set [2] was found to be 457 µg/mL (≈ 1230 µM).
Consider `Brc1cccc(Nc2ncnc3cc4c(cc23)OC(CN2CCOCC2)CO4)c1` (stereo not shown) [Example 31, (3-bromophenyl)-[7-(morpholin-4-ylmethyl)-[1,4]dioxano[2,3-g]quinazolin-4-yl]amine hydrochloride], for which, in data set [1], the pIC50 is 7.00. In addition, in the data set with A431 cancer cell, the “inhibitory effect of cancer cell growth compared with standard material DP153035” value is “better inhibitory effect of cancer cell growth than the standard material” and the “A431 GI50” value was found to be 0.19 µg/mL. The “Solubility (mg/10 ml of water)” value in data set [2] is recorded as >>1,000 mg/10 ml of water.
`OCCNCC1COc2cc3ncnc(Nc4cccc(Br)c4)c3cc2O1` (stereo not shown) [Example 35, 2-[4-(3-bromophenylamine)-[1,4]dioxano[2,3-g]quinazolin-7-ylmethyl]amino ethanol hydrochloride] had a pIC50 in data set [1] of 7.30. For the same molecule, in the data set on A431 cancer cell, the “inhibitory effect of cancer cell growth compared with standard material DP153035” value was “better inhibitory effect of cancer cell growth than the standard material” and the “A431 GI50” value worked out at 0.95 µg/mL. For the same molecule, the “Solubility (mg/10 ml of water)” value in data set [2] is given as >>1,000 mg/10 ml of water.
The like results for `OCCN(CCO)CC1COc2cc3ncnc(Nc4cccc(Br)c4)c3cc2O1` (stereo not shown) [Example 33, N-[4-(3-bromophenylamine)-[1,4]dioxano[2,3-g]quinazolin-7-ylmethyl]-N-(2-hydroxyethyl)]-2-ethanolamine hydrochloride] were, in that order, 7.35, “better inhibitory effect of cancer cell growth than the standard material”, 0.67 µg/mL and >>1,000 mg/10 ml of water.
Take `COCC1COc2cc3ncnc(Nc4cccc(C(F)(F)F)c4)c3cc2O1` (stereo not shown) [Example 12, (3-trifluoromethylphenyl)-(7-methoxymethyl-[1,4]-dioxano[2,3-g]quinazolin-4-yl)-amine]: the negative logarithm of the IC50 (pIC50) in data set [1] is less than 6.59. For the same molecule, in the data set on A431 cancer cell, the “inhibitory effect of cancer cell growth compared with standard material DP153035” value is reported as “better inhibitory effect of cancer cell growth than the standard material” and the 50% growth inhibitory concentration (GI50) amounted to 0.43 µg/mL (≈ 1.1 µM). Also, the solubility thermodynamic in data set [2] was found to be 74 µg/mL (≈ 189 µM).
Take `Cl.Ic1cccc(Nc2ncnc3cc4c(cc23)OCC(CN2CCOCC2)O4)c1` (stereo not shown) [Example 30]: the “Solubility (mg/10 ml of water)” value in data set [2] is listed as >>1,000 mg/10 ml of water.
`COCC1COc2cc3ncnc(Nc4cccc(Br)c4)c3cc2O1` (stereo not shown) [Example 10, (3-bromophenyl)-(7-methoxymethyl-[1,4]-dioxano[2,3-g]quinazolin-4-yl)-amine] had a pIC50 in data set [1] of 7.45. In the data set on A431 cancer cell, the “inhibitory effect of cancer cell growth compared with standard material DP153035” value is “better inhibitory effect of cancer cell growth than the standard material” and the 50% growth inhibitory concentration (GI50) worked out at 0.24 µg/mL (≈ 0.597 µM). The solubility thermodynamic in data set [2] was 241 µg/mL (≈ 599 µM).
Turning to `COc1cc2ncnc(Nc3cccc(Br)c3)c2cc1OC` [DP153035, reference compound], the GI50 in the data set on A431 cancer cell worked out at 0.99 µg/mL (≈ 2.75 µM). Besides, in data set [2], the solubility thermodynamic was 20 µg/mL (≈ 55.5 µM). Further, the “solubility in water (in words)” value in data set [3] was “insolubility in water”.
`Cl.OCCNCC1COc2cc3ncnc(Nc4cccc(I)c4)c3cc2O1` (stereo not shown) [Example 34, 2-[4-(3-iodophenylamine)-[1,4]dioxano[2,3-g]quinazolin-7-ylmethyl]amino ethanol hydrochloride]: in data set [2], the “Solubility (mg/10 ml of water)” value was >>1,000 mg/10 ml of water.
Turning to `COc1cc2ncnc(Nc3ccc(F)c(Cl)c3)c2cc1OCCCN1CCOCC1` [ZD 1839], in data set [3], the “solubility in water (in words)” value was “does not have a high solubility”.
